Laboratory results from patent US8445492B2, “Method for inhibiting growth of cancer cells and cell telomere and diseases of cell proliferation by using heteroannelated anthraquinone derivative compounds” (National Defense Medical Center, priority 2008, dated 2013).
Read-outs that look alike come from different tables or passages of the source.

Columns and labels:
T-47D = assay: in vitro test at 1.0×10^−5 M, Breast cancer cell; assay type: cell-based; conditions: 1.0×10^−5 molal concentration (M)
HOP-92 = assay: in vitro test at 1.0×10^−5 M, Non-small cell lung cancer cell; assay type: cell-based; conditions: 1.0×10^−5 molal concentration (M)
LOX IMV1 = assay: in vitro test at 1.0×10^−5 M, Skin cancer cell; assay type: cell-based; conditions: 1.0×10^−5 molal concentration (M)
SN12C = assay: in vitro test at 1.0×10^−5 M, Kidney cancer cell; assay type: cell-based; conditions: 1.0×10^−5 molal concentration (M)
MALME-3M = assay: in vitro test at 1.0×10^−5 M, Skin cancer cell; assay type: cell-based; conditions: 1.0×10^−5 molal concentration (M)
IGROV1 = assay: in vitro test at 1.0×10^−5 M, Ovary cancer cell; assay type: cell-based; conditions: 1.0×10^−5 molal concentration (M)
MDA-MB-468 = assay: in vitro test at 1.0×10^−5 M, Breast cancer cell; assay type: cell-based; conditions: 1.0×10^−5 molal concentration (M)
MDA-MB-435 = assay: in vitro test at 1.0×10^−5 M, Breast cancer cell; assay type: cell-based; conditions: 1.0×10^−5 molal concentration (M)
SF-539 = assay: in vitro test at 1.0×10^−5 M, CNS cancer cell; assay type: cell-based
MOLT-4 [1] = assay: in vitro test at 1.0×10^−5 M, Blood cancer cell; assay type: cell-based; conditions: 1.0×10^−5 molal concentration (M)
SK-MEL-2 = assay: in vitro test at 1.0×10^−5 M, Skin cancer cell; assay type: cell-based; conditions: 1.0×10^−5 molal concentration (M)
UACC-62 = assay: in vitro test at 1.0×10^−5 M, Skin cancer cell; assay type: cell-based; conditions: 1.0×10^−5 molal concentration (M)
UACC-257 = assay: in vitro test at 1.0×10^−5 M, Skin cancer cell; assay type: cell-based; conditions: 1.0×10^−5 molal concentration (M)
UO-31 = assay: in vitro test at 1.0×10^−5 M, Kidney cancer cell; assay type: cell-based; conditions: 1.0×10^−5 molal concentration (M)
ACHN = assay: in vitro test at 1.0×10^−5 M, Kidney cancer cell; assay type: cell-based; conditions: 1.0×10^−5 molal concentration (M)
MCF7 = assay: in vitro test at 1.0×10^−5 M, Breast cancer cell; assay type: cell-based; conditions: 1.0×10^−5 molal concentration (M)
U251 = assay: in vitro test at 1.0×10^−5 M, CNS cancer cell; assay type: cell-based
OVCAR-4 = assay: in vitro test at 1.0×10^−5 M, Ovary cancer cell; assay type: cell-based; conditions: 1.0×10^−5 molal concentration (M)
HCC-2998 = assay: in vitro test at 1.0×10^−5 M, Colorectal cancer cell; assay type: cell-based; conditions: 1.0×10^−5 molal concentration (M)
[2] = test system: different cancer cell lines; assay: in vitro test at 1.0×10^−5 M, summary over the cell lines; assay type: cell-based; design: unit not given here; conditions: 1.0×10^−5 molal concentration (M)
HL-60(TB) [3] = test system: HL-60(TB)
HL-60(TB) [4] = assay: NCI DTP in-vitro dose response, Leukemia
RPMI-8226 [5] = test system: RPMI-8226
K-562 [6] = test system: K-562
MOLT-4 [7] = test system: MOLT-4
CCRF-CEM [8] = assay: NCI DTP in-vitro dose response, Leukemia
RPMI-8226 [9] = assay: NCI DTP in-vitro dose response, Leukemia
CCRF-CEM [10] = test system: CCRF-CEM
MOLT-4 [11] = assay: NCI DTP in-vitro dose response, Leukemia
K-562 [12] = assay: NCI DTP in-vitro dose response, Leukemia
[13] = 1.0×10^−5 molal concentration (M)

Compound: CC1(C)Nc2ccc3c(c2N1)C(=O)c1ccccc1C3=O [No. 20, 2,2-Dimethyl-2,3-dihydro-1H-anthra[1,2-d]imidazole-6,11-dione]
- inhibition effect on cancer cell line (Table 2 value) (T-47D): 82.96
- inhibition effect on cancer cell line (Table 2 value) (HOP-92): 5.10
- inhibition effect on cancer cell line (Table 2 value) (LOX IMV1): 61.88
- inhibition effect on cancer cell line (Table 2 value) (SN12C): 91.98
- inhibition effect on cancer cell line (Table 2 value) (MALME-3M): 155.47
- inhibition effect on cancer cell line (Table 2 value) (IGROV1): −2.80
- inhibition effect on cancer cell line (Table 2 value) (MDA-MB-468): 77.25
- inhibition effect on cancer cell line (Table 2 value) (MDA-MB-435): 124.56
- inhibition effect on cancer cell line (Table 2 value) (SF-539): 93.56
- inhibition effect on cancer cell line (Table 2 value) (MOLT-4 [1]): 116.41
- inhibition effect on cancer cell line (Table 2 value) (SK-MEL-2): 8.04
- inhibition effect on cancer cell line (Table 2 value) (UACC-62): 67.58
- inhibition effect on cancer cell line (Table 2 value) (UACC-257): 118.22
- inhibition effect on cancer cell line (Table 2 value) (UO-31): 30.65
- inhibition effect on cancer cell line (Table 2 value) (ACHN): 50.17
- inhibition effect on cancer cell line (Table 2 value) (MCF7): 83.58
- inhibition effect on cancer cell line (Table 2 value) (U251): 87.84
- inhibition effect on cancer cell line (Table 2 value) (OVCAR-4): 80.14
- inhibition effect on cancer cell line (Table 2 value) (HCC-2998): 136.96
- Mean [2]: 80.41

Compound: O=C1c2ccccc2C(=O)c2c1ccc1nccnc21 [No. 25, Naphthol-[2,3-f]quinoxaline-7,12-dione]
- inhibition effect on cancer cell line (Table 2 value) (T-47D): 85.19
- inhibition effect on cancer cell line (Table 2 value) (LOX IMV1): 44.18
- inhibition effect on cancer cell line (Table 2 value) (SN12C): 64.65
- inhibition effect on cancer cell line (Table 2 value) (MALME-3M): 180.88
- inhibition effect on cancer cell line (Table 2 value) (IGROV1): 3.44
- inhibition effect on cancer cell line (Table 2 value) (MDA-MB-468): 75.28
- inhibition effect on cancer cell line (Table 2 value) (MDA-MB-435): 102.03
- inhibition effect on cancer cell line (Table 2 value) (SF-539; [13]): 40.72
- inhibition effect on cancer cell line (Table 2 value) (MOLT-4 [1]): 22.91
- inhibition effect on cancer cell line (Table 2 value) (SK-MEL-2): 6.66
- inhibition effect on cancer cell line (Table 2 value) (UACC-62): 90.47
- inhibition effect on cancer cell line (Table 2 value) (UACC-257): 91.06
- inhibition effect on cancer cell line (Table 2 value) (UO-31): 51.45
- inhibition effect on cancer cell line (Table 2 value) (ACHN): 46.52
- inhibition effect on cancer cell line (Table 2 value) (MCF7): 39.68
- inhibition effect on cancer cell line (Table 2 value) (U251; [13]): 63.47
- inhibition effect on cancer cell line (Table 2 value) (OVCAR-4): 94.22
- inhibition effect on cancer cell line (Table 2 value) (HCC-2998): −7.15
- Mean [2]: 69.36

Compound: O=C1c2ccccc2C(=O)c2c1ccc1[nH]c(=O)c(=O)[nH]c21 [No. 26, Naphtho[2,3-f]quinoxaline-2,3,7,12 (1H,4H)-tetraone]
- inhibition effect on cancer cell line (Table 2 value) (T-47D): 87.10
- inhibition effect on cancer cell line (Table 2 value) (HOP-92): −15.08
- inhibition effect on cancer cell line (Table 2 value) (LOX IMV1): 96.94
- inhibition effect on cancer cell line (Table 2 value) (SN12C): 94.07
- inhibition effect on cancer cell line (Table 2 value) (MALME-3M): 149.83
- inhibition effect on cancer cell line (Table 2 value) (IGROV1): 13.36
- inhibition effect on cancer cell line (Table 2 value) (MDA-MB-468): 38.35
- inhibition effect on cancer cell line (Table 2 value) (MDA-MB-435): 144.42
- inhibition effect on cancer cell line (Table 2 value) (SF-539; [13]): 101.16
- inhibition effect on cancer cell line (Table 2 value) (MOLT-4 [1]): 121.52
- inhibition effect on cancer cell line (Table 2 value) (SK-MEL-2): 21.96
- inhibition effect on cancer cell line (Table 2 value) (UACC-62): 95.25
- inhibition effect on cancer cell line (Table 2 value) (UACC-257): 118.21
- inhibition effect on cancer cell line (Table 2 value) (UO-31): 61.43
- inhibition effect on cancer cell line (Table 2 value) (ACHN): 81.33
- inhibition effect on cancer cell line (Table 2 value) (MCF7): 85.17
- inhibition effect on cancer cell line (Table 2 value) (U251; [13]): 95.92
- inhibition effect on cancer cell line (Table 2 value) (OVCAR-4): 103.31
- inhibition effect on cancer cell line (Table 2 value) (HCC-2998): 77.59
- Mean [2]: 100.83

Compound: O=C1c2ccccc2C(=O)c2c1ccc1nccnc21 [TABLE 5-1]
- GI50 (HL-60(TB) [3]): 0.677 µM
- TGI (HL-60(TB) [3]): 1.15E−5
- Percent Growth (HL-60(TB) [3]; Log10 Concentration −4.0): −54%
- Percent Growth (HL-60(TB) [3]; Log10 Concentration −5.0): 3%
- Percent Growth (HL-60(TB) [3]; Log10 Concentration −6.0): 47%
- Percent Growth (HL-60(TB) [3]; Log10 Concentration −7.0): 67%
- Percent Growth (HL-60(TB) [3]; Log10 Concentration −8.0): 83%
- CC50 (HL-60(TB) [4]): 83.7 µM
- GI50 (RPMI-8226 [5]): 1.61 µM
- TGI (RPMI-8226 [5]): >1.00E−4
- Percent Growth (RPMI-8226 [5]; Log10 Concentration −4.0): 12%
- Percent Growth (RPMI-8226 [5]; Log10 Concentration −5.0): 30%
- Percent Growth (RPMI-8226 [5]; Log10 Concentration −6.0): 55%
- Percent Growth (RPMI-8226 [5]; Log10 Concentration −7.0): 81%
- Percent Growth (RPMI-8226 [5]; Log10 Concentration −8.0): 90%
- GI50 (K-562 [6]): 0.0683 µM
- TGI (K-562 [6]): >1.00E−4
- Percent Growth (K-562 [6]; Log10 Concentration −4.0): 10%
- Percent Growth (K-562 [6]; Log10 Concentration −5.0): 17%
- Percent Growth (K-562 [6]; Log10 Concentration −6.0): 30%
- Percent Growth (K-562 [6]; Log10 Concentration −7.0): 41%
- Percent Growth (K-562 [6]; Log10 Concentration −8.0): 94%
- GI50 (MOLT-4 [7]): 3.65 µM
- TGI (MOLT-4 [7]): >1.00E−4
- Percent Growth (MOLT-4 [7]; Log10 Concentration −4.0): 4%
- Percent Growth (MOLT-4 [7]; Log10 Concentration −5.0): 33%
- Percent Growth (MOLT-4 [7]; Log10 Concentration −6.0): 72%
- Percent Growth (MOLT-4 [7]; Log10 Concentration −7.0): 81%
- Percent Growth (MOLT-4 [7]; Log10 Concentration −8.0): 89%
- CC50 (CCRF-CEM [8]): > 100 µM
- CC50 (RPMI-8226 [9]): > 100 µM
- GI50 (CCRF-CEM [10]): 2.46 µM
- TGI (CCRF-CEM [10]): >1.00E−4
- Percent Growth (CCRF-CEM [10]; Log10 Concentration −4.0): 20%
- Percent Growth (CCRF-CEM [10]; Log10 Concentration −5.0): 22%
- Percent Growth (CCRF-CEM [10]; Log10 Concentration −6.0): 68%
- Percent Growth (CCRF-CEM [10]; Log10 Concentration −7.0): 91%
- Percent Growth (CCRF-CEM [10]; Log10 Concentration −8.0): 90%
- CC50 (MOLT-4 [11]): > 100 µM
- CC50 (K-562 [12]): > 100 µM
